In ChEMBL document CHEMBL1201862, “PubChem BioAssay data set” (2004):
Calls of active or inactive are those of the source.

Experiments:
[1] = target: T1, Corticotropin-releasing factor receptor 2/Corticotropin-releasing factor-binding protein (Homo sapiens, UniProt P24387+Q13324); assay: Dose Response confirmation of uHTS hits for small molecule antagonists of the CRF-binding protein and CRF-R2 receptor complex.; assay type: functional; conditions: read-out: IC50_Mean
T1 sequence (Q13324 whole entry): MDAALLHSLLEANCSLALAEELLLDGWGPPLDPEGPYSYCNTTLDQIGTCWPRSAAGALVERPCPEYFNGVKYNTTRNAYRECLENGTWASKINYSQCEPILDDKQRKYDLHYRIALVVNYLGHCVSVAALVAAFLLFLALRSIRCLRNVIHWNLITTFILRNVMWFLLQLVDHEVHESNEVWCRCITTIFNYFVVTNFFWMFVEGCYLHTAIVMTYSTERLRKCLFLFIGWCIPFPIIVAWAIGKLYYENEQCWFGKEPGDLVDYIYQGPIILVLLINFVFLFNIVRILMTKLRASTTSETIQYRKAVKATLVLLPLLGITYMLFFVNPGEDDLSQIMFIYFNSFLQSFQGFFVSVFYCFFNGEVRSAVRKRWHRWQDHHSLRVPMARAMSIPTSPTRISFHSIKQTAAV
T1 sequence (P24387 whole entry): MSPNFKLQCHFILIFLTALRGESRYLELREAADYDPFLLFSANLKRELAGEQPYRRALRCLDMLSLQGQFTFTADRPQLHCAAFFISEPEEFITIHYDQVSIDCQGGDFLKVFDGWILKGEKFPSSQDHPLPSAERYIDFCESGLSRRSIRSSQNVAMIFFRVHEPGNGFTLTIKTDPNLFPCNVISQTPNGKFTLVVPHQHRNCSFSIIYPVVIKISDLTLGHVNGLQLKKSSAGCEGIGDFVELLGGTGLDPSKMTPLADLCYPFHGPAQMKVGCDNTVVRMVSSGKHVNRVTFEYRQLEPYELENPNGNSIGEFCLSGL

[2] = target: T1, Corticotropin-releasing factor receptor 2/Corticotropin-releasing factor-binding protein; assay: activators of CRF receptor 2 with binding protein – uHTS hits, confirmation (AID 602473); assay type: functional; conditions: read-out: EC50_Mean
Large T antigen = Large T antigen (Simian virus 40, UniProt P03070); assay type: functional, Betapolyomavirus macacae;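 further: Confirmatory-stage PubChem screen for compounds that inhibit SV40 T antigen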
Cytochrome P450 1A2 = target: T2, Cytochrome P450 1A2 (Homo sapiens, UniProt P05177);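 further: PubChem cytochrome P450 panel assay, CYP1A2 panel member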
T2 sequence (P05177 whole entry): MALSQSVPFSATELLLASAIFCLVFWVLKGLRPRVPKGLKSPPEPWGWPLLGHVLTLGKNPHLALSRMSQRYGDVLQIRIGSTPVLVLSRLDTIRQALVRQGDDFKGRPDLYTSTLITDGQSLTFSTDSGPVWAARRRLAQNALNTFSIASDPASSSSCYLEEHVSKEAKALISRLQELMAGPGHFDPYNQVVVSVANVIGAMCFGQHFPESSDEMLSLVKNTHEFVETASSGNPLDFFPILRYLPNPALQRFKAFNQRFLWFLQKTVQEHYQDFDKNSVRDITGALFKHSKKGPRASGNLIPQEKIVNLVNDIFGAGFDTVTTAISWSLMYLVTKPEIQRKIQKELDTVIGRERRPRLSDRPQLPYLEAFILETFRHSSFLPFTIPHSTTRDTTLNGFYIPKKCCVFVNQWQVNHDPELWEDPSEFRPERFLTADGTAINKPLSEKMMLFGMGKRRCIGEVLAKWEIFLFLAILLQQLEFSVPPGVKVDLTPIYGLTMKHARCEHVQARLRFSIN

[3] = target: T3, Heat shock factor protein 1 (Mus musculus, UniProt P38532); assay: HSF1 potentiators in luciferase reporter cells, confirmation, cell-based, NIH3T3, luminescence, dose retest (AID 435004); assay type: functional;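 further: stress induced by proteasome inhibitor MG132 added 30 min after compound; luciferase reporter driven by HSF1 response element in NIH3T3 cells; actives raise luminescence as potentiators of the MG132 stress response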
T3 sequence (P38532 whole entry): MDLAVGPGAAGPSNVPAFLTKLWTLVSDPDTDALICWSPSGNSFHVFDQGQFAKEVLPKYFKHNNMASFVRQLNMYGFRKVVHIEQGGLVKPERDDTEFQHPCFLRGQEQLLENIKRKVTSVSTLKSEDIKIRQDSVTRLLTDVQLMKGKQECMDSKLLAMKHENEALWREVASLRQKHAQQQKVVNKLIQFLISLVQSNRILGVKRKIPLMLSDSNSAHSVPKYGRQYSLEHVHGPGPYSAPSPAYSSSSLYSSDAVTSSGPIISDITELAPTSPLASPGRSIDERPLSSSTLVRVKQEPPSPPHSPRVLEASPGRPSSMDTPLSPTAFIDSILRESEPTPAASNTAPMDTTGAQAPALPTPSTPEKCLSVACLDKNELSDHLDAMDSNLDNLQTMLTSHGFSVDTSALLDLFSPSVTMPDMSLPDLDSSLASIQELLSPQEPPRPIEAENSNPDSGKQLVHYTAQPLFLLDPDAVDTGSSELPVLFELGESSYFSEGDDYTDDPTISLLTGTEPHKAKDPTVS

[4] = control 3'UTR Renilla luciferase suppression, dose response, counter-screen for Shn3 inhibitor project, cell-based, Clone20-Shn3RL, cherry-picked (AID 624133); assay type: functional
[5] = Shn3 3'UTR reporter inhibitors, dose response, cell-based, Clone20 osteoblasts, firefly luciferase, cherry-picked (AID 624132); assay type: functional;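 further: firefly luciferase luminescence from reporter carrying the Shn3 3'UTR in osteoblasts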
Cytochrome P450 2C19 = Cytochrome P450 2C19 (Homo sapiens, UniProt P33261); assay: Cytochrome panel assay with activity outcomes. Panel member name: p450-cyp2c19 Compounds with AC50 equal or less than 10 uM are considered active; assay type: functional; conditions: read-out: AC50
Cytochrome P450 3A4 = Cytochrome P450 3A4 (Homo sapiens, UniProt P08684);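 further: CYP3A4 tested as one member of a cytochrome P450 panel screen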
[6] = target: T4, Rac GTPase-activating protein 1 (Homo sapiens, UniProt Q9H0H5); assay: MgcRacGAP GTPase-activating activity inhibitors, confirmation, biochemical, ADP Hunter fluorescence, primary and confirmatory (AID 624330); assay type: functional
T4 sequence (Q9H0H5 whole entry): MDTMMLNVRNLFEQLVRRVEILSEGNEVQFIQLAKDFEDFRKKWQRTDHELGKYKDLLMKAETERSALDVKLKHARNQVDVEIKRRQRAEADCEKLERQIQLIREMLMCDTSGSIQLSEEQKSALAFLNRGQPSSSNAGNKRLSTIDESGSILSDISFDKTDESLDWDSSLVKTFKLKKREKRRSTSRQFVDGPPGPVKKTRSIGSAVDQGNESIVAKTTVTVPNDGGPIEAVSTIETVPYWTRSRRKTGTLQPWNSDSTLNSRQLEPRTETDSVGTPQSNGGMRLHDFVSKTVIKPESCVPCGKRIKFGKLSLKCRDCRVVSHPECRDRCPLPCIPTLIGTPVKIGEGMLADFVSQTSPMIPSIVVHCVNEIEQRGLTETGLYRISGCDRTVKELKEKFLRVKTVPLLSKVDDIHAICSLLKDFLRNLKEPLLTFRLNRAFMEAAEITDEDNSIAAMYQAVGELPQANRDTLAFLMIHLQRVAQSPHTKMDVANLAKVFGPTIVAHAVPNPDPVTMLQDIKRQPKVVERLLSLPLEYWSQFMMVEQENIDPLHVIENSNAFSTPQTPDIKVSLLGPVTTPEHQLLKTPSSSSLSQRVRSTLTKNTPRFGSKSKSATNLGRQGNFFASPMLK

Protein RecA = target: T5, Protein RecA (Mycobacterium tuberculosis, UniProt P9WHJ3); assay: Fluorescence Cell-Free Homogeneous Dose Retest to Identify Inhibitors of RecA-Intein Splicing Activity. [Related pubchem assays (depositor defined):AID2097, AID2223, AID489010, AID492950]; assay type: functional
T5 sequence (P9WHJ3 whole entry): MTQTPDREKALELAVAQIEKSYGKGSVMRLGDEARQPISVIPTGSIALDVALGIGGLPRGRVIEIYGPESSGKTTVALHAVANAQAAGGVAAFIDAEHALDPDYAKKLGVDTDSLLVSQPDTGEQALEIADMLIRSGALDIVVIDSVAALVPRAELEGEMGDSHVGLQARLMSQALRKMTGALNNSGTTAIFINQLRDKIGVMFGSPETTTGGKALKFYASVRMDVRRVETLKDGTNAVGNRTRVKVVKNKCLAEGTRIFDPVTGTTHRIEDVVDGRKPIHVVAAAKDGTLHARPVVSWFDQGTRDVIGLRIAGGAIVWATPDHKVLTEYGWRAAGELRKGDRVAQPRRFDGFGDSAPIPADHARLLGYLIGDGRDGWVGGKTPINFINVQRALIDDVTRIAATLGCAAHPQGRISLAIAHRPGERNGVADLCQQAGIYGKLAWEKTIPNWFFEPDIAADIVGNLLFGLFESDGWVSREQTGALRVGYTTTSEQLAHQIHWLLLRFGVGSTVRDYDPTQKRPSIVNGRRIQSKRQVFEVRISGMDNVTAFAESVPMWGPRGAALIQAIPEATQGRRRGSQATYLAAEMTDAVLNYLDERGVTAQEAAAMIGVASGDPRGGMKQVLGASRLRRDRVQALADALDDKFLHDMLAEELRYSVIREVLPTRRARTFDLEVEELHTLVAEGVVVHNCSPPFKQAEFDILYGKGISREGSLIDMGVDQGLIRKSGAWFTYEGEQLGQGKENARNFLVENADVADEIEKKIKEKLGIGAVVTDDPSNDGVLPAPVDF

[7] = target: T6, Replicative DNA helicase DnaB (Mycobacterium tuberculosis, UniProt P9WMR3); assay: DnaB intein splicing inhibitors, dose response, biochemical, cell-free fluorescence (AID 449749); assay type: functional
T6 sequence (P9WMR3 whole entry): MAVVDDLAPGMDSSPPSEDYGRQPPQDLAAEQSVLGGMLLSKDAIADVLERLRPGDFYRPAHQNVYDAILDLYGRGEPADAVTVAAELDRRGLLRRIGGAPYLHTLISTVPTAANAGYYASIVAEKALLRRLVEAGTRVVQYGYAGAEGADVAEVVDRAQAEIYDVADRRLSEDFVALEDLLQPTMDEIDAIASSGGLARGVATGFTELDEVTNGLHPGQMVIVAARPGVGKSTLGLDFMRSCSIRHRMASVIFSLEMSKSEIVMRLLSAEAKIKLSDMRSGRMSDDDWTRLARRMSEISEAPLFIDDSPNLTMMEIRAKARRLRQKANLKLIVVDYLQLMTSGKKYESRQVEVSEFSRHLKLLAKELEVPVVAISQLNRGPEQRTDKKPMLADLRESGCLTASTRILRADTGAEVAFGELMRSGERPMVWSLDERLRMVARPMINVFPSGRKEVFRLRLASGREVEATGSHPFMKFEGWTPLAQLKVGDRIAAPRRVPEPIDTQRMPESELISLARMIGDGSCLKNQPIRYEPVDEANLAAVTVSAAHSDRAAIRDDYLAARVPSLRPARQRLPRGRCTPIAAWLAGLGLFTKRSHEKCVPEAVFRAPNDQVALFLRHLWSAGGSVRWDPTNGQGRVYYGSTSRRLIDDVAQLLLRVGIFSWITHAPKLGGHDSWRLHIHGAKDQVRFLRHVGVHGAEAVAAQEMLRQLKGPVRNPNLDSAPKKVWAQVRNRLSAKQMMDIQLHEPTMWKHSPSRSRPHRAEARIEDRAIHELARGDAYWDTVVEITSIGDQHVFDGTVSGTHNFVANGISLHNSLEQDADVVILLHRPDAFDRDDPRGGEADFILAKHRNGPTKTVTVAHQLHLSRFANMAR

Large T antigen, sequence (P03070 whole entry): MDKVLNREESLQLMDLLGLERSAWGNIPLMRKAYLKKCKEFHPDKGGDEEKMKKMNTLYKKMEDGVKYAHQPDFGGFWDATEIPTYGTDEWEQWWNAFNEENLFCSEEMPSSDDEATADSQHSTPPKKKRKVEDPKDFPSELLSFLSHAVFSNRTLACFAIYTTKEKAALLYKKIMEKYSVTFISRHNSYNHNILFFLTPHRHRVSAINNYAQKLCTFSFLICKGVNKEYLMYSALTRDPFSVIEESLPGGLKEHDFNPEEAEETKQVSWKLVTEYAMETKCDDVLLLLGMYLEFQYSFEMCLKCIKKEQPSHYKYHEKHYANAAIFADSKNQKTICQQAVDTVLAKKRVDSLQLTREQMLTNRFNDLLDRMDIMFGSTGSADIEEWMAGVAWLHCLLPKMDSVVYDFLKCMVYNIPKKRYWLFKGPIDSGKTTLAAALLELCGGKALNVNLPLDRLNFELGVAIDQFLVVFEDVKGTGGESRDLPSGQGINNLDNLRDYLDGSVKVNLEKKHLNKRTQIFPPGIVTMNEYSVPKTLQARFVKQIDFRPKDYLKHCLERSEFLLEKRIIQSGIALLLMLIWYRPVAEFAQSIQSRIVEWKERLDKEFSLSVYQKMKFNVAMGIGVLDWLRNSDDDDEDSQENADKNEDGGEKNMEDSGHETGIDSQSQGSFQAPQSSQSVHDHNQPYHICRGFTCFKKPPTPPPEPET
Cytochrome P450 3A4, sequence (P08684 whole entry): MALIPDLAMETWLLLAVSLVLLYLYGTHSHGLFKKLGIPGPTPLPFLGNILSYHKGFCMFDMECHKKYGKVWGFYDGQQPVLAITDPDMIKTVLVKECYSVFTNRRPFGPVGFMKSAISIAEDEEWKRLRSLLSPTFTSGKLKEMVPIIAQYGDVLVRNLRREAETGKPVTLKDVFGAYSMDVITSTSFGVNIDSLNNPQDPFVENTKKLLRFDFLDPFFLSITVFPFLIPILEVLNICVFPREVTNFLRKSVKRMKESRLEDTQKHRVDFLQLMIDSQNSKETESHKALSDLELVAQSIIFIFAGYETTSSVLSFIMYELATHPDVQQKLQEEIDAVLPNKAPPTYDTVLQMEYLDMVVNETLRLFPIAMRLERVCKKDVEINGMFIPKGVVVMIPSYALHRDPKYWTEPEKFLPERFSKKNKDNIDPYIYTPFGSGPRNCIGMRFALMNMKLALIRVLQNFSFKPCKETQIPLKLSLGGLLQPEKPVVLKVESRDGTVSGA
Cytochrome P450 2C19, sequence (P33261 whole entry): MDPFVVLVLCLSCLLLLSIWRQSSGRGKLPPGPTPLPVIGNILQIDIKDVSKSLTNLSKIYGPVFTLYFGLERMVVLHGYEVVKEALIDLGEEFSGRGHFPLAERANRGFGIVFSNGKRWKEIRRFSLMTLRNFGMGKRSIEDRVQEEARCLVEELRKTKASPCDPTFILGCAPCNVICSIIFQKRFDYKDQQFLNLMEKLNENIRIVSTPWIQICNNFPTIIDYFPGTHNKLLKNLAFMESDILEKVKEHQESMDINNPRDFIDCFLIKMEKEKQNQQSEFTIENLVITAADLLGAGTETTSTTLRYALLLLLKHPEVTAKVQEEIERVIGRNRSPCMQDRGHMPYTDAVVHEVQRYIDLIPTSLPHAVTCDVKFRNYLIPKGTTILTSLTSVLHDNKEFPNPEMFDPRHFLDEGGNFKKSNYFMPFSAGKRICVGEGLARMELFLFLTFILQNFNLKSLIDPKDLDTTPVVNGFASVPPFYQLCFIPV

Row | Structure (SMILES) | IC50 [1] | EC50 [2] | further results
1 | CCc1nnc(NC(=O)CCC(=O)N2CCN(Cc3cc(Cl)ccc3OC)CC2)s1 | > 47.1 µM (inactive) | > 53 µM (inactive) | –
2 | COc1cccc(CNC(=O)CN(c2ccc(C(C)C)cc2)S(=O)(=O)c2c(C)noc2C)c1 | > 47.1 µM (inactive) | > 53 µM (inactive) | –
3 | Cc1ccc2oc(=O)c(/C=C(\O)C(C)(C)C)nc2c1 | – | – | IC50 (Large T antigen): 11 µM (active)
4 | CCOC(=O)Cc1csc(NC(=O)c2c(-c3c(Cl)cccc3Cl)noc2C)n1 | – | – | AC50 (Cytochrome P450 1A2): 14.1 µM (inconclusive)
5 | Cc1cccc(C(=O)N2CCc3ccccc3C2)c1[N+](=O)[O-] | > 47.1 µM (inactive) | > 53 µM (inactive) | –
6 | Cc1cc(NC(=O)c2nn(C)c(C)c2[N+](=O)[O-])no1 | – | – | AC50 (Cytochrome P450 1A2): 25.1 µM (inconclusive)
7 | Fc1ccc(C2c3cccn3CCN2C(S)=Nc2cccc(F)c2)cc1 (configuration not stated) | > 47.1 µM (inactive) | > 53 µM (inactive) | –
8 | Cc1nc2ccccc2nc(C)c1=NOCc1ccccc1Cl | > 47.1 µM (inactive) | > 53 µM (inactive) | EC50 [3]: > 260 µM (inactive)
9 | COc1ccc(S(=O)(=O)N2CCN(c3cc(-c4ccccc4)nc4ncnn34)CC2)cc1 | – | – | AC50 [4]: 1.6 µM (active); AC50 [5]: 3.89 µM (active)
10 | CC(C)CCNC(=O)C12CN(Cc3ccccc3)CC1C(c1cccc([N+](=O)[O-])c1)=NO2 (configuration not stated) | – | – | AC50 (Cytochrome P450 1A2): 14.1 µM (inconclusive)
11 | COc1ccc(-c2nc3cnc(N4CCOCC4)nc3n(CCC#N)c2=O)cc1 | – | – | AC50 (Cytochrome P450 1A2): 3.16 µM (inconclusive)
12 | N#Cc1ccc(S(=O)(=O)N2CCN(C(=O)[C@@H]3CCCN3C(=O)c3cccs3)CC2)cc1 | > 47.1 µM (inactive) | > 53 µM (inactive) | –
13 | CCN(CC)c1ccc(NC(=O)CSc2nnc3nc(C)cc(C)n23)cc1 | – | – | IC50 (Large T antigen): 19.8 µM (active); AC50 (Cytochrome P450 2C19): 17.8 µM (inconclusive); AC50 (Cytochrome P450 3A4): 39.8 µM (inconclusive)
14 | C[C@@H](CCC(=O)O)C(=O)O | – | – | AC50 (Cytochrome P450 1A2): 6.31 µM (inconclusive)
15 | O=C(NCCO)c1nc(C(=O)c2ccc(Cl)cc2)c2ccccc2n1 | > 47.1 µM (inactive) | > 53 µM (inactive) | –
16 | CCCNC(=O)c1ccc(CN2CCc3ccccc3C2)cc1 | > 47.1 µM (inactive) | > 53 µM (inactive) | –
17 | CCOC(=O)C(CC)/C(C)=N\NC(=O)c1cccc(C)c1 (configuration not stated) | > 47.1 µM (inactive) | > 53 µM (inactive) | –
18 | CC1C/C(=N\NC(=O)c2ccc([N+](=O)[O-])cc2)CC(C)(C)C1 (configuration not stated) | > 47.1 µM (inactive) | > 53 µM (inactive) | –
19 | Cn1cccc1/C=N/N1CCN(c2ccccn2)CC1 | – | – | IC50 (Large T antigen): 5.17 µM (active); IC50 [6]: 27.6 µM (active)
20 | O=C(N/N=C/c1ccc(OC(=O)c2ccco2)cc1)c1ccc[n+]([O-])c1 | – | – | EC50 (Protein RecA): 24.6 µM (active); IC50 (Large T antigen): 55.5 µM (active); AC50 [7]: 24.6 µM (active)
